# Values joined by “and” are separate entries in the source; they are usually repeats but may differ in a detail not shown here. Identical values can stand only once. Like-named read-outs stand apart in the source and are kept apart here.
# What was measured:
# [1] = system: MDA-MB-231 breast cancer cells; experiment: MTT cytotoxicity assay against MDA-MB-231; format: cell-based; details: Homo sapiens, mean ± SE of three independent experiments
# Experimental: Cells were cultured using Dulbecco’s Modified Eagle’s Medium (Invitrogen/Life Technologies) supplemented with 10% FBS (Hyclone), 10 µg/mL of insulin, and 1% penicillin–streptomycin. Cells were seeded in 96-well plate with cells density 1.2–1.8 × 10,000 cells/well, in a volume of 100 µL complete growth medium + 100 µL of the tested compound per well and the plate was incubated for 24 h before the MTT assay. […] IC50 was calculated according to the equation of Boltzmann sigmoidal concentration-response curve using Graph Pad Prism 5.
# EGFR = target: T1, EGFR (Homo sapiens, UniProt P00533); experiment: In vitro enzymatic activity assay, EGFR kinase kit; format: biochemical; details: for % Inhibition of EGFR: concentration not given; for IC50: mean ± SE of three independent experiments
# T1 construct: purchased Invitrogen PV3872
# Experimental: (§1) EGFR and HER2 kinase kits were purchased from Invitrogen. […] ATP solution and a kinase/peptide mixture were prepared. The plate was incubated for 1 h at room temperature. About […] of the developing solution was added to each well. The plate was incubated for 1 h and then read by ELISA Reader (PerkinElmer, USA). Every experiment was repeated three times. Data represented as means ± SE from three independent experiments. Curve fitting was performed using Graph Pad Prism 5.
# HER2 = target: T2, HER2 (Homo sapiens, UniProt P04626); experiment: In vitro enzymatic activity assay, HER2 kinase kit; format: biochemical; details: mean ± SE of three independent experiments
# T2 construct: purchased Invitrogen PV3366
# Experimental: as §1
# MDA-MB-231 cells = experiment: Radiosensitizing activity (MTT with 8 Gy gamma irradiation); format: cell-based; details: Homo sapiens, light or radiation study
# Experimental: Irradiation was performed at the National Center for Radiation Research and Technology (NCRRT), Egyptian Atomic Energy Authority (EAEA), using gamma cell-40 (^137Cs) source. Compound 10 was selected to be re-evaluated for the in vitro antiproliferative activity in combination with γ-irradiation using MTT assay. Cells were incubated with compound 10 in molar concentrations of 0.01, 0.1, 1.0, and 10 µM. After 2 h, cells were subjected to a single dose of 8 Gy of γ-radiation at a dose rate of 0.758 rad/s for 17.73 min, and then the anti-proliferative activity was measured 48 h after irradiation. The IC50 of the tested compounds was calculated after irradiation.
# caspase-3 = experiment: Active caspase-3 level immunoassay; format: cell-based, human; details: for Caspase 3: level of active caspase-3, control 53.2
# Experimental: Cover and incubate for 2 h at room temperature. […] Incubate for 1 h then add 100 µL anti-rabbit IgG HRP working solution to each well and incubate for 30 min. The absorbance of each well was measured at 450 nm.
# Bcl2 = Bcl2 expression level; format: cell-based, human; details: MDA-MB-231 cells, compared to the control cells
# [2] = MTT cytotoxicity against normal breast cells; format: cell-based; details: human, 184A1 normal breast cells; MTT assay
# Experimental: MDA-MB-231 breast cancer cells and 184A1 normal breast cells of American Type Culture Collection were obtained from VACSERA, Egypt. Cells were cultured using Dulbecco’s Modified Eagle’s Medium (Invitrogen/Life Technologies) supplemented with 10% FBS (Hyclone), 10 µg/mL of insulin, and 1% penicillin–streptomycin. Cells were seeded in 96-well plate with cells density 1.2–1.8 × 10,000 cells/well, in a volume of 100 µL complete growth medium + 100 µL of the tested compound per well and the plate was incubated for 24 h before the MTT assay. The cell layer was rinsed with 0.25% (w/v) trypsin, 0.53 mM EDTA solution, incubated for 2 h, then the absorbance was measured at a wavelength of 570 nm[30]. IC50 was calculated according to the equation of Boltzmann sigmoidal concentration-response curve using Graph Pad Prism 5.
# MDA-MB-231 cell line = experiment: Cell cycle distribution analysis (propidium iodide, DNA cytometer); format: cell-based, human; details: MDA-MB-231 cells treated at IC50; for %Apoptosis: PreG1, control 0.97; for %G2-M: control 6.44; for %S: control 23.04; for %G0-G1: control 69.55
# Experimental: Control cells with known DNA content (peripheral blood mononuclear cells) were used as a reference point for determining the DNA index for the test samples. The cells were stained with propidium iodide stain following the procedure provided by the kit then incubated at room temperature for 5 min in the dark and run on the DNA cytometer. Cell cycle distribution was calculated using […] software (Becton Dickinson Immunocytometry Systems, San Jose, CA, USA).
# Bax = Bax expression level; format: cell-based, human; details: MDA-MB-231 cells, compared to the control cells
# T2 sequence (P04626 23-1255): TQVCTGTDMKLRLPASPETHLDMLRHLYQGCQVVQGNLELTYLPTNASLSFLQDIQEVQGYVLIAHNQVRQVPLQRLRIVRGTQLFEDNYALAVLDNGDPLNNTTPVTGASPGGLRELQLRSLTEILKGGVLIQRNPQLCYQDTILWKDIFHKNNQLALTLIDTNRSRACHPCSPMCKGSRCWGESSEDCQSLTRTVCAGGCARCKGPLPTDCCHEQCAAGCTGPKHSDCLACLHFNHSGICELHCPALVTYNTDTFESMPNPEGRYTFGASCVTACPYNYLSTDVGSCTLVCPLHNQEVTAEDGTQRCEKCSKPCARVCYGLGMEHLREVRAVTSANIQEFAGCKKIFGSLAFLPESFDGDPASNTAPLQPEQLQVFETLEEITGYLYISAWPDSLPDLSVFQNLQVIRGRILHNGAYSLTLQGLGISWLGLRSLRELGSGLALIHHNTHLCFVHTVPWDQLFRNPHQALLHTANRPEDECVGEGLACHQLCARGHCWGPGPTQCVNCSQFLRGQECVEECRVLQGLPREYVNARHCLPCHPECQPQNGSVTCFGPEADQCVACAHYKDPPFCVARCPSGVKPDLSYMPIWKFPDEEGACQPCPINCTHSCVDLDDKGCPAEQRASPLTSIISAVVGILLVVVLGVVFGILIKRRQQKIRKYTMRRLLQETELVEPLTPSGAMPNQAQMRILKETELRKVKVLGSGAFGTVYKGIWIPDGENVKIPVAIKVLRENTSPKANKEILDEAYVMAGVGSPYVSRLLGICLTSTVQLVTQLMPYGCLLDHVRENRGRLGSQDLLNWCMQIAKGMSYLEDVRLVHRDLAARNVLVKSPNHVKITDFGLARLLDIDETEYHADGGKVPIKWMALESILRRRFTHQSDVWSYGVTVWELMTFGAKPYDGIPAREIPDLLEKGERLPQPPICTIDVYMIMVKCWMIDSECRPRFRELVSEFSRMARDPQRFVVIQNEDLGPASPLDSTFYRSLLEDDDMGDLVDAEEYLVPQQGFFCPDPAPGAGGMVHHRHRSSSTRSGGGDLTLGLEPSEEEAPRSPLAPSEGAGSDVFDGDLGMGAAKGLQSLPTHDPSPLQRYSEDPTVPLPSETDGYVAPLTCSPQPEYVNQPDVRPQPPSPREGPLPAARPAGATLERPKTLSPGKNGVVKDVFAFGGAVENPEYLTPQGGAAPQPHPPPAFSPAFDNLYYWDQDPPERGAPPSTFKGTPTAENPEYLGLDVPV
# T1 sequence (P00533 25-1210): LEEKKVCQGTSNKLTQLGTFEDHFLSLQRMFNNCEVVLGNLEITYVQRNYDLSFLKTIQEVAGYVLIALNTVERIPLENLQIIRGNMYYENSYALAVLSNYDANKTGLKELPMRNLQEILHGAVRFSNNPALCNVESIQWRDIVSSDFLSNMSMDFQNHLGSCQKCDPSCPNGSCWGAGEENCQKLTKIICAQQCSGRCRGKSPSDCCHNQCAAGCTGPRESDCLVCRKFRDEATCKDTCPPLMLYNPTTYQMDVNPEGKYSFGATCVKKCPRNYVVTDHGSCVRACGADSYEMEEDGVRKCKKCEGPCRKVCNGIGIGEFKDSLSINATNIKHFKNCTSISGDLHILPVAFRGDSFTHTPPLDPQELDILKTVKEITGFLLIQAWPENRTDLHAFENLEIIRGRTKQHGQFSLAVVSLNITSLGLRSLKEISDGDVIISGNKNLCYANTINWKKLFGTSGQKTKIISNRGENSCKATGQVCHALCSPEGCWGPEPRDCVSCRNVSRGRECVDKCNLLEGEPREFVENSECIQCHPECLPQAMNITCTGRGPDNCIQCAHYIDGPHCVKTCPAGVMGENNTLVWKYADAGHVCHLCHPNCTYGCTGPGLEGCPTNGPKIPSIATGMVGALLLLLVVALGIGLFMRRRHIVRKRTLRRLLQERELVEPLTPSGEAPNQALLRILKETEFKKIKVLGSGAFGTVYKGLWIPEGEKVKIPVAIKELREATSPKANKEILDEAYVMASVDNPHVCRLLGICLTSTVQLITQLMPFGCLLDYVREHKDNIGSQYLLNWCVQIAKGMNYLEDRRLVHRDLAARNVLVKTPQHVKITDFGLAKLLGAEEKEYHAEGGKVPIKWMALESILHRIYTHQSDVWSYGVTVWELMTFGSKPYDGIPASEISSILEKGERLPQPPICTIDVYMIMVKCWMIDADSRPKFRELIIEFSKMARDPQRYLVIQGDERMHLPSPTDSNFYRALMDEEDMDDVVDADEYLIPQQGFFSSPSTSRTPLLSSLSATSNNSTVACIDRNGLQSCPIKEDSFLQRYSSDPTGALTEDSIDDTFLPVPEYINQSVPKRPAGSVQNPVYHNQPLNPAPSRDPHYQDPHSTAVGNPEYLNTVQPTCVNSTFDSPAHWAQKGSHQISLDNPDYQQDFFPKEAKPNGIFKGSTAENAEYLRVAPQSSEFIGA
% Inhibition of EGFR (EGFR),melting point,IC50 (HER2),IC50 (EGFR),Structure (SMILES),IC50 [1],other results
42.00%,292.4 °C,,,"Cc1cc(NC(=O)CSc2nc3cc4ccccc4cc3c(=O)n2-c2ccc(S(N)(=O)=O)cc2)no1 [Compound 5, N-(5-Methylisoxazol-3-yl)-2-[(4-oxo-3–(4-sulfamoylphenyl)-3,4-dihydrobenzo[g]quinazolin-2-yl)thio]acetamide]",2.47 ± 0.08 µM,
18.13%,304 °C,,,"NS(=O)(=O)c1ccc(-n2c(SCC(=O)Nc3nccs3)nc3cc4ccccc4cc3c2=O)cc1 [Compound 6, 2-[(4-Oxo-3-(4-sulfamoylphenyl)-3,4-dihydrobenzo[g]quinazolin-2-yl)thio]-N-(thiazol-2-yl)acetamide]",23.2 ± 1.88 µM,
25.98%,255.9 °C,,,"CCOc1ccc2nc(NC(=O)CSc3nc4cc5ccccc5cc4c(=O)n3-c3ccc(S(N)(=O)=O)cc3)sc2c1 [Compound 7, N-(6-Ethoxybenzo[d]thiazol-2-yl)-2-[(4-oxo-3-(4-sulfamoylphenyl)-3,4-dihydrobenzo[g]quinazolin-2-yl)thio]acetamide]",26.5 ± 2.14 µM,
54.61%,278.3 °C,,,"NS(=O)(=O)c1ccc(-n2c(SCC(=O)Nc3nc4ccc([N+](=O)[O-])cc4s3)nc3cc4ccccc4cc3c2=O)cc1 [Compound 8, N-(6-Nitrobenzo[d]thiazol-2-yl)-2-[(4-oxo-3-(4-sulfamoylphenyl)-3,4-dihydrobenzo[g]quinazolin-2-yl)thio]acetamide]",2.91 ± 0.03 µM,
52.49%,257 °C,,,"NS(=O)(=O)c1ccc(-n2c(SCC(=O)Nc3nnc(C(F)(F)F)s3)nc3cc4ccccc4cc3c2=O)cc1 [Compound 9, 2-[(4-Oxo-3-(4-sulfamoylphenyl)-3,4-dihydrobenzo[g]quinazolin-2-yl)thio]-N-(5-(trifluoromethyl)-1,3,4-thiadiazol-2-yl)acetamide]",2.19 ± 0.05 µM,
,279.3 °C,31.31 ± 0.31 µM,2.55 ± 0.17 µM,"Cc1ccc(C)c(NC(=O)CSc2nc3cc4ccccc4cc3c(=O)n2-c2ccc(S(N)(=O)=O)cc2)c1 [Compound 11, N-(2,5-Dimethylphenyl)-2-[(4-oxo-3-(4-sulfamoylphenyl)-3,4-dihydrobenzo[g]quinazolin-2-yl)thio]acetamide]",0.28 ± 0.01 µM,
41.86%,300.5 °C,,,"Cc1cccc(C)c1NC(=O)CSc1nc2cc3ccccc3cc2c(=O)n1-c1ccc(S(N)(=O)=O)cc1 [Compound 12, N-(2,6-Dimethylphenyl)-2-[(4-oxo-3-(4-sulfamoylphenyl)-3,4-dihydrobenzo[g]quinazolin-2-yl)thio]acetamide]",2.19 ± 0.09 µM,
,293.8 °C,13.01 ± 0.09 µM,10.2 ± 0.1 µM,"Cc1cc([N+](=O)[O-])ccc1NC(=O)CSc1nc2cc3ccccc3cc2c(=O)n1-c1ccc(S(N)(=O)=O)cc1 [Compound 13, N-(2-Methyl-4-nitrophenyl)-2-[(4-oxo-3-(4-sulfamoylphenyl)-3,4-dihydrobenzo[g]quinazolin-2-yl)thio]acetamide]",0.4 ± 0.01 µM,
,280 °C,26.03 ± 0.22 µM,4.11 ± 0.02 µM,"NS(=O)(=O)c1ccc(-n2c(SCC(=O)Nc3c[nH]c(=O)[nH]c3=O)nc3cc4ccccc4cc3c2=O)cc1 [Compound 14, N-(2,4-Dioxo-1,2,3,4-tetrahydropyrimidin-5-yl)-2-[(4-oxo-3-(4-sulfamoylphenyl)-3,4-dihydrobenzo[g]quinazolin-2-yl)thio]acetamide]",0.37 ± 0.01 µM,
21.45%,307.7 °C,,,"Cn1c(NC(=O)CSc2nc3cc4ccccc4cc3c(=O)n2-c2ccc(S(N)(=O)=O)cc2)cc(=O)n(C)c1=O [Compound 15, N-(1,3-Dimethyl-2,6-dioxo-1,2,3,6-tetrahydropyrimidin-4-yl)-2-[(4-oxo-3-(4-sulfamoylphenyl)-3,4-dihydrobenzo[g]quinazolin-2-yl)thio]acetamide]",21.8 ± 1.63 µM,
59.66%,205.7 °C,,,"NS(=O)(=O)c1ccc(-n2c(SCC(=O)Nc3cnccn3)nc3cc4ccccc4cc3c2=O)cc1 [Compound 16, 2-[(4-Oxo-3-(4-sulfamoylphenyl)-3,4-dihydrobenzo[g]quinazolin-2-yl)thio]-N-(pyrazin-2-yl)acetamide]",0.32 ± 0.01 µM,
8.71%,241.6 °C,,,"NS(=O)(=O)c1ccc(-n2c(SCC(=O)Nc3cccc4ccccc34)nc3cc4ccccc4cc3c2=O)cc1 [Compound 17, N-(Naphthalene-1-yl)-2-[(4-oxo-3-(4-sulfamoylphenyl)-3,4-dihydrobenzo[g]quinazolin-2-yl)thio]acetamide]",161 ± 4.69 µM,
,256.7 °C,3.2 ± 0.04 µM,9.66 ± 0.08 µM,"NS(=O)(=O)c1ccc(-n2c(SCC(=O)Nc3ccc4c(c3)C(=O)c3ccccc3C4=O)nc3cc4ccccc4cc3c2=O)cc1 [Compound 18, N-(9,10-Dioxo-9,10-dihydroanthracen-2-yl)-2-[(4-oxo-3-(4-sulfamoylphenyl)-3,4-dihydrobenzo[g]quinazolin-2-yl)thio]acetamide]",0.26 ± 0.01 µM,
,,,,"C#Cc1cccc(Nc2ncnc3cc(OCCOC)c(OCCOC)cc23)c1 [Erlotinib, N-(3-ethynylphenyl)-6,7-bis(2-methoxyethoxy)quinazolin-4-amine, reference compound]",,Caspase 3 (caspase-3): 480.1 pg/mL; IC50 at 24 h [2]: 102 ± 3.55 µM; %Apoptosis (MDA-MB-231 cell line): 17.33%; %G2-M (MDA-MB-231 cell line): 24.81%; %S (MDA-MB-231 cell line): 16.31%; %G0-G1 (MDA-MB-231 cell line): 41.55%

Structure (SMILES),% Inhibition of EGFR (EGFR),melting point,IC50 (HER2),IC50 (EGFR),IC50 [1],other results
"Cc1ccc(NC(=O)CSc2nc3cc4ccccc4cc3c(=O)n2-c2ccc(S(N)(=O)=O)cc2)cc1C [Compound 10, N-(3,4-Dimethylphenyl)-2-[(4-oxo-3-(4-sulfamoylphenyl)-3,4-dihydrobenzo[g]quinazolin-2-yl)thio]acetamide]",,232.8 °C,5.4 ± 0.12 µM,3.9 ± 0.03 µM,0.31 ± 0.01 µM,"IC50 (MDA-MB-231 cells; no irradiation, read-out: IC50 before Irradiation): 0.31 ± 0.01 µM; IC50 (MDA-MB-231 cells; single dose of 8 Gy γ-radiation, measured 48 h after irradiation, read-out: IC50 after Irradiation): 0.22 ± 0.03 µM; Caspase 3 Folds (caspase-3; increase compared to the control cells): 10 Folds and 10.25 Folds; Caspase 3 (caspase-3): 545.7 pg/mL; Bcl2 (Folds) (Bcl2): 0.14 Folds and 0.1379 Folds; IC50 at 24 h [2]: 84.5 ± 0.72 µM; %Apoptosis (MDA-MB-231 cell line): 14.84%; %G2-M (MDA-MB-231 cell line): 17.52%; %S (MDA-MB-231 cell line): 18.28%; %G0-G1 (MDA-MB-231 cell line): 49.36%; Bax (Folds) (Bax): 9 Folds and 9.372 Folds"

# Source: paper PMC6522976, “Novel sulphonamide benzoquinazolinones as dual EGFR/HER2 inhibitors, apoptosis inducers and radiosensitizers” (Journal of Enzyme Inhibition and Medicinal Chemistry, 2019)
